Source: patent US20140221340A1 (KYOWA HAKKO KIRIN CO., LTD., priority 2011, published 2014)

Target: T1, human CCR10 (Homo sapiens, UniProt P46092)
T1 construct: expressed in transfected cells; host or cells: KJMGER8 cell (cell line derived from Namalwa cell); expression induced with 10 nmol/L β-estradiol
T1 sequence (P46092 1-362): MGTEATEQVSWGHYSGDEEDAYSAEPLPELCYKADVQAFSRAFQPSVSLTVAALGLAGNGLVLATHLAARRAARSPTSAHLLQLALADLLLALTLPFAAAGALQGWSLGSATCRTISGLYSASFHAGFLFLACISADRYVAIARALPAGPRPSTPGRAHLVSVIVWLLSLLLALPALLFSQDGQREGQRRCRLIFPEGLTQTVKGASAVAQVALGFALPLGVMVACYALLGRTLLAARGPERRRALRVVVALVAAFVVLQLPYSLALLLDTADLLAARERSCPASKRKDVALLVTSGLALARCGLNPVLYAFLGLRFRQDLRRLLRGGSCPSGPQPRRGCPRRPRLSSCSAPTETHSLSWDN
Experiment: Calcium assay of human CCR10 (inhibition of CTACK-induced increase in intracellular calcium ion concentration in hCCR10G16 cells)
Type: cell-based
Settings: test compound 100 nmol/L; human recombinant CTACK; hCCR10G16 cells (KJMGER8/Namalwa-derived, Gα16 co-expressed); FLIPR or FDSS; read-out: Inhibitory rate (%) for an increase in calcium ion concentration
Protocol: A CCR10-inducible expression plasmid was produced according to a known method (“Analytical Biochemistry”, 2006, vol. 400, page 163). A DNA encoding human CCR10 was obtained by PCR. Using human chromosomal DNA (100 ng; manufactured by Clontech Laboratories, Inc.) as a template, a synthetic DNA having the sequences shown by SEQ ID NOs: 1 and 2 as a human CCR10 cDNA specific primer, and Pyrobest DNA Polymerase (manufactured by TAKARA SHUZO CO. LTD.) as an enzyme, a DNA encoding human CCR10 was obtained by PCR. As a buffer solution for PCR, the buffer solution attached to the enzyme was diluted 10-fold with deionized water and used. Using Thermal Cycler DNA Engine (manufactured by MJ Research), PCR was performed by 35 cycles of reactions composed of an incubation at 90° C. for 2 min, at 94° C. for 30 seconds, at an anneal temperature of 58° C. for 30 seconds, and at 72° C. for 1 min.
The amplified PCR fragment was cleaved with HindIII and NotI, then a human CCR10 DNA fragment was recovered by an agarose gel electrophoresis method. The fragment was incorporated in between the corresponding restriction enzyme sites (HindIII-NotI) of an inducible expression vector, whereby a human CCR10-inducible expression plasmid were prepared.
Using a primer specific to the sequence of the plasmid (synthetic DNA having the sequences shown by SEQ ID NOs: 3 and 4), the sequence of human CCR10 DNA region was determined. For the determination of the base sequence, DNA sequencer 377 (manufactured by PerkinElmer) and a reaction kit (ABI Prism (registered trade mark) BigDye (registered trade mark) Terminator Cycle Sequencing Ready Reaction kit: manufactured by Applied Biosystems) were used. The sequence of human CCR10 DNA matched with the sequence (NM_016602) registered in GenBank.
Cells for the detection of the signal from human CCR10 by a calcium assay were prepared. Human CCR10-inducible expressing cells whose host cell is KJMGER8 cell (cell line derived from Namalwa cell) were prepared according to a known method (“Analy Biochem”, 2006, vol. 400, page 163). Human CCR10-inducible expression plasmid produced above and Gα16 expression plasmid were co-transfected into KJMGER8 cell by an electroporation method (“Cytotechnology”, 1990, vol. 3, page 133), whereby a signal from human CCR10 could be detected by a calcium assay (hereinafter to be referred to as hCCR10G16 cell). Gα16 expression plasmid was produced by incorporating human Gα16 DNA into expression vector pAMoh (WO03/087366). Induced expression of human CCR10 was performed by cultivating hCCR10G16 cells in the presence of 10 nmol/L β-estradiol (manufactured by Sigma Ltd.) for 24 hr.
Cells expressing human CCR10 induced by the above-mentioned method were suspended in RPMI1640 medium and adjusted to cell density of 1.25×10^6 cells/mL. This mixture was dispensed to a 384 well clear bottom plate (manufactured by Corning Incorporated) at 20 μL/well, and these were incubated at 37° C. for several dozen minutes. A loading buffer prepared according to the protocol attached to FLIPR Calcium 3 assay kit (manufactured by Molecular Device) was dispensed to this plate at 20 μL/well, and the plate was incubated at 37° C. for 60 min. A 33 μmol/L DMSO solution of the test compound was diluted 37-fold with RPMI1640 medium and the resulting solution was added at 5 μL/well, and the mixture was incubated at 37° C. for 30 min. 300 nmol/L human recombinant CTACK (manufactured by R and D Systems) diluted with RPMI1640 medium containing 1 w/v % bovine serum albumin was added at 5 μL/well. Change of the intracellular calcium ion concentration for about 5 min after the addition was measured by FLIPR (manufactured by Molecular Device) or FDSS (manufactured by Hamamatsu Photonics K.K.). The difference between the maximum fluorescence intensity and the minimum fluorescence intensity for 5 min was calculated, and taken as the measurement value (maximum fluorescence intensity−minimum fluorescence intensity). […]

inhibition at 0.1 µM [%]	SMILES
> 100	O=C(NC1CC1)NS(=O)(=O)c1cnn2c(Nc3ccc(F)cc3Cl)c(C(=O)N3CCC(c4ccc(F)cc4)CC3)cnc12 [a-21, 7-(2-Chloro-4-fluorophenylamino)-N-(cyclopropylcarbamoyl)-6-[4-(4-fluorophenyl)piperidine-1-carbonyl]pyrazolo[1,5-a]pyrimidine-3-sulfonamide]
> 100	CCC(=O)NS(=O)(=O)c1cnn2c(Nc3cc(Cl)ccc3Cl)c(C(=O)N3CCC(c4ccc(F)cc4)CC3)cnc12 [a-22, N-{7-(2,5-Dichlorophenylamino)-6-[4-(4-fluorophenyl)piperidine-1-carbonyl]pyrazolo[1,5-a]pyrimidin-3-ylsulfonyl}propionamide]
96.7	CCNC(=O)NS(=O)(=O)c1cnn2c(Nc3cc(Cl)ccc3Cl)c(C(=O)N3CCC(c4ccc(F)cc4)CC3)cnc12 [a-23, 7-(2,5-Dichlorophenylamino)-N-(ethylcarbamoyl)-6-[4-(4-fluorophenyl)piperidine-1-carbonyl]pyrazolo[1,5-a]pyrimidine-3-sulfonamide]
> 100	CC(=O)NS(=O)(=O)c1cnn2c(Nc3cc(Cl)ccc3Cl)c(C(=O)N3CCC(c4ccc(F)cc4)CC3)cnc12 [a-24, N-{7-(2,5-Dichlorophenylamino)-6-[4-(4-fluorophenyl)piperidine-1-carbonyl]pyrazolo[1,5-a]pyrimidin-3-ylsulfonyl}acetamide]
> 100	CC1(C(=O)NS(=O)(=O)c2cnn3c(Nc4cc(Cl)ccc4Cl)c(C(=O)N4CCC(c5ccc(F)cc5)CC4)cnc23)COC1 [a-25, N-{7-(2,5-Dichlorophenylamino)-6-[4-(4-fluorophenyl)piperidine-1-carbonyl]pyrazolo[1,5-a]pyrimidin-3-ylsulfonyl}-3-methyloxetane-3-carboxamide]
> 100	O=CNS(=O)(=O)c1cnn2c(Nc3cc(Cl)ccc3Cl)c(C(=O)N3CCC(c4ccc(F)cc4)CC3)cnc12 [a-26, N-{7-(2,5-Dichlorophenylamino)-6-[4-(4-fluorophenyl)piperidine-1-carbonyl]pyrazolo[1,5-a]pyrimidin-3-ylsulfonyl}formamide]
> 100	CONS(=O)(=O)c1cnn2c(Nc3cc(Cl)ccc3Cl)c(C(=O)N3CCC(c4ccc(F)cc4)CC3)cnc12 [a-27, 7-(2,5-Dichlorophenylamino)-6-[4-(4-fluorophenyl)piperidine-1-carbonyl]-N-methoxypyrazolo[1,5-a]pyrimidine-3-sulfonamide]
> 100	CCONS(=O)(=O)c1cnn2c(Nc3cc(Cl)ccc3Cl)c(C(=O)N3CCC(c4ccc(F)cc4)CC3)cnc12 [a-28, 7-(2,5-Dichlorophenylamino)-N-ethoxy-6-[4-(4-fluorophenyl)piperidine-1-carbonyl]-pyrazolo[1,5-a]pyrimidine-3-sulfonamide]
> 100	CCC(=O)NS(=O)(=O)c1cnn2c(Nc3cc(C(F)(F)F)ccc3Cl)c(C(=O)N3CCC(c4ccc(F)cc4)CC3)cnc12 [a-29, N-{7-(2-Chloro-5-trifluoromethylphenylamino)-6-[4-(4-fluorophenyl)piperidine-1-carbonyl]pyrazolo[1,5-a]pyrimidin-3-ylsulfonyl}propionamide]
> 100	CCNC(=O)NS(=O)(=O)c1cnn2c(Nc3cc(F)ccc3Cl)c(C(=O)N3CCC(c4ccc(F)cc4)CC3)cnc12 [a-30, 7-(2-Chloro-5-fluorophenylamino)-N-(ethylcarbamoyl)-6-[4-(4-fluorophenyl)piperidine-1-carbonyl]pyrazolo[1,5-a]pyrimidine-3-sulfonamide]
> 100	CCC(=O)NS(=O)(=O)c1cnn2c(Nc3cc(C)ccc3F)c(C(=O)N3CCC(c4ccc(F)cc4)CC3)cnc12 [a-31, N-{7-(2-Fluoro-5-methylphenylamino)-6-[4-(4-fluorophenyl)piperidine-1-carbonyl]pyrazolo[1,5-a]pyrimidin-3-ylsulfonyl}propionamide]
> 100	Cc1ccc(F)c(Nc2c(C(=O)N3CCC(c4ccc(F)cc4)CC3)cnc3c(S(=O)(=O)NC(=O)NC4CC4)cnn23)c1 [a-32, 7-(2-Fluoro-5-methylphenylamino)-N-(cyclopropylcarbamoyl)-6-[4-(4-fluorophenyl)piperidine-1-carbonyl]pyrazolo[1,5-a]pyrimidine-3-sulfonamide]
> 100	CC(=O)NS(=O)(=O)c1cnn2c(Nc3cc(Cl)ccc3F)c(C(=O)N3CCC(c4ccc(F)cc4)CC3)cnc12 [a-33, N-{7-(5-Chloro-2-fluorophenylamino)-6-[4-(4-fluorophenyl)piperidine-1-carbonyl]pyrazolo[1,5-a]pyrimidin-3-ylsulfonyl}acetamide]
> 100	CCNC(=O)NS(=O)(=O)c1cnn2c(Nc3cc(Cl)ccc3F)c(C(=O)N3CCC(c4ccc(F)cc4)CC3)cnc12 [a-34, 7-(5-Chloro-2-fluorophenylamino)-N-(ethylcarbamoyl)-6-[4-(4-fluorophenyl)piperidine-1-carbonyl]pyrazolo[1,5-a]pyrimidine-3-sulfonamide]
> 100	CC(=O)NS(=O)(=O)c1cnn2c(Nc3cc(F)ccc3F)c(C(=O)N3CCC(c4ccc(F)cc4)CC3)cnc12 [a-35, N-{7-(2,5-Difluorophenylamino)-6-[4-(4-fluorophenyl)piperidine-1-carbonyl]pyrazolo[1,5-a]pyrimidin-3-ylsulfonyl}acetamide]
> 100	CCC(=O)NS(=O)(=O)c1cnn2c(Nc3cc(F)ccc3F)c(C(=O)N3CCC(c4ccc(F)cc4)CC3)cnc12 [a-36, N-{7-(2,5-Difluorophenylamino)-6-[4-(4-fluorophenyl)piperidine-1-carbonyl]pyrazolo[1,5-a]pyrimidin-3-ylsulfonyl}propionamide]
> 100	Cc1ccc(Cl)c(Nc2c(C(=O)N3CCC(c4ccc(F)cc4)CC3)cnc3c(S(=O)(=O)NC(=O)NC4CC4(F)F)cnn23)c1 (stereo not shown) [a-37, 7-(2-Chloro-5-methylphenylamino)-N-(2,2-difluorocyclopropylcarbamoyl)-6-[4-(4-fluorophenyl)piperidine-1-carbonyl]pyrazolo[1,5-a]pyrimidine-3-sulfonamide]
> 100	CC(=O)NS(=O)(=O)c1cnn2c(Nc3cccc(Cl)c3Cl)c(C(=O)N3CCC(c4ccc(F)cc4)CC3)cnc12 [a-38, N-{7-(2,3-Dichlorophenylamino)-6-[4-(4-fluorophenyl)piperidine-1-carbonyl]pyrazolo[1,5-a]pyrimidin-3-ylsulfonyl}acetamide]
> 100	CCNC(=O)NS(=O)(=O)c1cnn2c(Nc3ccc(Cl)c(Cl)c3)c(C(=O)N3CCC(c4ccc(F)cc4)CC3)cnc12 [a-39, 7-(3,4-Dichlorophenylamino)-N-(ethylcarbamoyl)-6-[4-(4-fluorophenyl)piperidine-1-carbonyl]pyrazolo[1,5-a]pyrimidine-3-sulfonamide]
